# Measurements taken from patent publication US20050074426A1, “Fusions of cytokines and tumor targeting proteins” (priority 2002, published 2005).
# Like-named read-outs stand apart in the source and are kept apart here.
# Columns and labels:
# p75TNFR = target: T1, p75TNFR (Homo sapiens, UniProt P20333); conditions: cited from earlier work
# T1 sequence (P20333 23-461): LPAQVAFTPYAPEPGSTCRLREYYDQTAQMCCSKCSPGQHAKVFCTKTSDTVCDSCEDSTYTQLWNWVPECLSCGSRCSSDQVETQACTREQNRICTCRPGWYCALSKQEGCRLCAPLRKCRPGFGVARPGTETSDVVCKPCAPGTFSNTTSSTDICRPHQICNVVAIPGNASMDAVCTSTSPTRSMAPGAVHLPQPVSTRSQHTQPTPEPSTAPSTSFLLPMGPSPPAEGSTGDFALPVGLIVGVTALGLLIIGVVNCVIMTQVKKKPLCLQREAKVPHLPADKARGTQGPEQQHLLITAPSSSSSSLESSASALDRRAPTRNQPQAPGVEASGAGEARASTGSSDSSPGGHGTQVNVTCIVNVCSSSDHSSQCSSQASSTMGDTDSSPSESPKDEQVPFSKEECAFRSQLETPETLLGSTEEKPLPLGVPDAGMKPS
# p55TNFR = target: T2, p55TNFR (Homo sapiens, UniProt P19438); conditions: cited from earlier work
# T2 sequence (P19438 30-455): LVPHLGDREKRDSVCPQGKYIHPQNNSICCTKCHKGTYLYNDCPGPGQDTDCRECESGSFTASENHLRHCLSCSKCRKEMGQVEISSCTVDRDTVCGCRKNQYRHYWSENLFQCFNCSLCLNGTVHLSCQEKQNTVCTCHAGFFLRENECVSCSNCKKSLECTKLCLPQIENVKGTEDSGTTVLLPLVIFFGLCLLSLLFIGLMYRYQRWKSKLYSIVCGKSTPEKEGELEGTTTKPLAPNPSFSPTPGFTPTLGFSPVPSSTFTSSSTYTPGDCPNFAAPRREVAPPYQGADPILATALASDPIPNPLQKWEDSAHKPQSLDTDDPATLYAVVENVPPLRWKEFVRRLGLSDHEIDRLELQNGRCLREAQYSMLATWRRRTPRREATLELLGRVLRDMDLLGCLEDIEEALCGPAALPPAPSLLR
# RMA-T lymphoma = assay: anti-tumor activity and survival in RMA-T lymphoma bearing mice; type: in vivo, C57BL/6 mice
# Procedure: The Rauscher virus-induced RMA lymphoma of C57BL/6 origin (69) were maintained in vitro in RPMI 1640, 5% fetal bovine serum (FBS), 100 U/ml penicillin, 100 μg/ml streptomycin, 0.25 μg/ml amphotericin B, 2 mM glutamine and 50 μM 2-mercaptoethanol. RMA-T was derived from the RMA cell line by transfection with a construct encoding the Thy 1.1 allele and cultured as described Moro, 1997 #28].
# (§1) In vivo studies on animal models were approved by the Ethical Committee of the San Raffaele H Scientific Institute and performed according to the prescribed guidelines. C57BL/6 (Charles River Laboratories, Calco, Italy) (16-18 g) were challenged with 5×10^4 RMA-T or TSA living cells, respectively, s.c. in the left flank. […] Each experiment was carried out with 5 mice per group. The tumor growth was monitored daily by measuring the tumor size with calipers. The tumor area was estimated by calculating r1×r2 π, whereas tumor volume was estimated by calculating r1×r2×r3×4/3 π, where r1 and r2 are the longitudinal and lateral radii, and r3 is the thickness of tumors protruding from the surface of normal skin. Animals were killed before the tumor reached 1.0-1.3 cm diameter. Tumor sizes are shown as mean±SE (5-10 animals per group) and compared by t-test.
# To avoid excessive suffering, the animals were killed when the tumor diameter was greater than 1-1.3 cm.
# [1] = test system: L-M mouse fibroblasts (ATCC CCL1.2)
# [2] = lethality in RMA-T tumor bearing mice; type: in vivo, C57BL/6 mice; conditions: 3 days after treatment, single dose i.p.
# Procedure: as §1, with “flank. Ten-twelve days after tumor implantation, mice were treated, i.p., with 250 μl TNF or RGD-TNF solutions, diluted with endotoxin-free 0.9% sodium chloride.” for “flank.”
# Murine TNF administered to animals bearing established s.c. RMA-T tumors, causes 24 h later a reduction in the tumor mass and haemorragic necrosis in the central part of the tumor, followed by a significant growth delay for few days (71). […] In a first set of experiments we investigated the effect of various doses (i.p.) of TNF or RGD-TNF on animal survival. […]
# [3] = cited from earlier work
# [4] = dose 1 μg i.v., treated 12 days after tumor implantation
# [5] = dose 2 μg i.v., treated 12 days after tumor implantation
# [6] = dose 4 μg i.v., treated 12 days after tumor implantation
substance,measurement,setting,value
TNF: Tumor Necrosis Factor-α; in the examples murine recombinant Met-TNF1-156 produced in E. coli,Kd,p75TNFR,0.1 nM
same,Kd,p55TNFR,0.5 nM
same,Survival (%) Day 14,RMA-T lymphoma; [4],100%
same,Survival (%) Day 22,RMA-T lymphoma; [4],22%
same,Survival (%) Day 32,RMA-T lymphoma; [4],0%
same,Survival (%) Day 14,RMA-T lymphoma; [5],100%
same,Survival (%) Day 22,RMA-T lymphoma; [5],37%
same,Survival (%) Day 32,RMA-T lymphoma; [5],0%
same,Survival (%) Day 90 (2nd ch.),"RMA-T lymphoma; dose 4 μg i.v., re-challenge with 50.000 RMA-T at day 90",0%
same,Survival (%) Day 14,RMA-T lymphoma; [6],100%
same,Survival (%) Day 22,RMA-T lymphoma; [6],70%
same,Survival (%) Day 32,RMA-T lymphoma; [6],30%
same,Survival (%) Day 37,RMA-T lymphoma; [6],10%
same,Survival (%) Day 14,"RMA-T lymphoma; dose 8 μg i.v., treated 12 days after tumor implantation",0%
same,Survival (%) Day 14,"RMA-T lymphoma; dose 16 μg i.v., treated 12 days after tumor implantation",0%
same,animals cured,"RMA-T lymphoma; single treatment, RGD-TNF 16 μg, TNF all doses",no animals at all were cured
same,in vitro cytotoxic activity,[1],(1.2±0.14)×10^8 units/mg
same,LD50 (lethality),[2],6 µg
same,maximum tolerated dose,"[3]; bolus, intravenous, humans",218-410 μg/m^2
same,maximum tolerated dose,[3]; systemic administration,8 to 10 µg/kg
